Common to all, as to type: functional, cell-based, Oocyte
The target of data set [1] is T1, Solute carrier organic anion transporter family member 1A2 (OATP1A2) (Homo sapiens, UniProt P46721).
T1 sequence (P46721 whole entry): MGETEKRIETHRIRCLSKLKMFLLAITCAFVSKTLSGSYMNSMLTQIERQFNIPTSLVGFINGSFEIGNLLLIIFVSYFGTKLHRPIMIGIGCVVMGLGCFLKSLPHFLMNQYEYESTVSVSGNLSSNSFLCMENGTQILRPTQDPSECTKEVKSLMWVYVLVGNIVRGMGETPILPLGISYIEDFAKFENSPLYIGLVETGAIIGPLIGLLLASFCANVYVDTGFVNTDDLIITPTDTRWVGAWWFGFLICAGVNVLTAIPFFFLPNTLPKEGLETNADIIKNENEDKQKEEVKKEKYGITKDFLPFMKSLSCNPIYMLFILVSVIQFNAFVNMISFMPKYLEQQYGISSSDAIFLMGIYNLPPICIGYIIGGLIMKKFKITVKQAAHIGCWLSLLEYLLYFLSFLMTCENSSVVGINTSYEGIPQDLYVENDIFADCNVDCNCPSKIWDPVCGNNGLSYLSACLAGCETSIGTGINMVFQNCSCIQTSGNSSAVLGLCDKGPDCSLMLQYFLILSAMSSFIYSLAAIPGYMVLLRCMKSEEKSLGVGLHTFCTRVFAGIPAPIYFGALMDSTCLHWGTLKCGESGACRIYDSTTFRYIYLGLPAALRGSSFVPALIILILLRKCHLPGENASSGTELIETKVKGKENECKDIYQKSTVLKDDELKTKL
The data set can be described thus: TP_TRANSPORTER: inhibition of Ouabain uptake (Ouabain: 100 uM, TCDC: 100 uM) in Xenopus laevis oocytes. As to conditions: probe Ouabain.

Data set [2] has as its target T1, Solute carrier organic anion transporter family member 1A2 (OATP1A2). The data set can be described thus: TP_TRANSPORTER: inhibition of E1S uptake (E1S: 0.2 uM, TCDC: 100 uM) in Xenopus laevis oocytes. The settings on record: probe E1S (estrone sulfate).
Data set [3] has the same target. The data set can be described thus: TP_TRANSPORTER: uptake in Xenopus laevis oocytes.

On to `C[C@H](CCC(=O)NCCS(=O)(=O)O)[C@H]1CC[C@H]2[C@@H]3[C@H](O)C[C@@H]4C[C@H](O)CC[C@]4(C)[C@H]3CC[C@]12C` [TAUROCHENODEOXYCHOLATE], for which the inhibition at 100 µM in data set [1] amounted to 100%; in data set [2], 91%.

Consider `C[C@@H]1O[C@@H](O[C@H]2C[C@@H](O)[C@]3(CO)[C@H]4[C@H](O)C[C@]5(C)[C@@H](C6=CC(=O)OC6)CC[C@]5(O)[C@@H]4CC[C@]3(O)C2)[C@H](O)[C@H](O)[C@H]1O` [OUABAIN], for which the Km in data set [3] turned out to be 5500 µM.

Take `C[C@]12CC[C@@H]3c4ccc(OS(=O)(=O)O)cc4CC[C@H]3[C@@H]1CCC2=O` [ESTRONE SULFURIC ACID]: in data set [3], the Km was 59 µM.

(Values after ChEMBL document CHEMBL2073890, “Multispecific amphipathic substrate transport by an organic anion transporter of human liver” (J Hepatol, 1996).)
